Among the data in patent US20250084092A1, “ANNULATED PYRIDAZINE COMPOUND” (Nico Therapeutics, Inc., priority 2021, published 2025) are IC50, phototoxic effect and inhibition values, retold here.

A word on the pIC50: it is −log10 of the IC50, conventionally taken in molar units. By inhibition is commonly meant the relative decrease from the control value, in per cent.

Each structure is given as a SMILES string. pIC50: −log10 of the molar value.

One data set deals with hERG channel (Homo sapiens, UniProt Q12809). Nature of the data set: Safety pharmacology test: hERG channel inhibitory effect. Type of data set: biochemical. As to conditions: human Ether-a-go-go Related Gene channel. As for the experimental part: For the safety pharmacology test, evaluation of a human Ether-a-go-go Related Gene (hereinafter referred to as hERG) channel inhibitory effect was carried out. The hERG channel inhibitory effect was evaluated using a modified method described in Combinatorial Chemistry & High Throughput Screening, 12, 1, 78-95 (2009).
(The hERG channel carries a current that helps repolarise heart muscle cells.)

Another data set has as its system 3T3. Kind of data set: In vitro phototoxicity test (3T3 NRU). Type of data set: cell-based. The conditions noted are these: In vitro 3T3 NRU Phototoxicity Test, OECD 432, ICH S10. The source says: The evaluation of in vitro phototoxicity tests was based on ICH S10: Guidelines for Evaluation of Photosafety of Drugs (Notification No. 0521-1) using a method described in OECD Guidelines for the Testing of Chemicals 432: In vitro 3T3 NRU Phototoxicity Test, 2019).

Data set [1] relates to TNF-α production in THP-1 cells. Kind of data set: TNF-α production inhibition test. Type of data set: cell-based. As to conditions: Homo sapiens; PMA-treated THP-1 cells, LPS 50 ng/mL, 2 hours, TNF-α in supernatant by ELISA. As for the experimental part: PMA (phorbol myristate acetate, SIGMA, P1585) was added to THP-1 cells in an amount of 50 ng/mL to culture the cells for 2 days at 37° C. The culture medium was replaced with a serum-free RPMI-1640 medium, and a compound with a known concentration was added thereto to culture the cells at 37° C. for 15 minutes. LPS (Lipopolysaccharide SIMGA, L2880) was added so that each final concentration becomes 50 ng/mL, followed by culturing at 37° C. for 2 hours. The supernatants were collected to measure the concentration of TNF-α by ELISA (DuoSet ELISA human TNF-α, R&D Systems, DY210). The TNF-α concentrations were plotted against log concentrations of test compounds, and an IC50 value was calculated by sigmoid Emax model nonlinear regression analysis.

For the next data set, the target named is T1, NLRP3 inflammasome (Homo sapiens, UniProt Q96P20).
T1 construct: endogenous in cells; host or cells: THP-1 cells (PMA-differentiated, stimulated with LPS and ATP)
Kind of data set: THP-1 IL-1β production inhibition test. Type of data set: cell-based. As to conditions: PMA-treated THP-1 cells, LPS 50 ng/mL + ATP 5 mM, 2 hours, IL-1β in supernatant by ELISA. In short, it runs like this: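 THP-1 cells differentiated with PMA 50 ng/mL for 2 days, then stimulated with LPS 50 ng/mL and ATP 5 mM (final) for 2 h at 37 °C. Supernatant IL-1β measured by ELISA; IC50 from sigmoid Emax nonlinear regression against log compound concentration.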
On the technique in general: In an ELISA, binding on a coated surface is turned into a signal by an enzyme label.

For the next data set, the system named is IL-1β p17. Nature of the data set: Rat central nervous system IL-1β production test. Type of data set: in vivo. As to conditions: Wistar rat, oral, cerebrospinal fluid, LPS + BzATP in cisterna magna, read-out: percent inhibition of IL-1β p17 relative to the solvent-treated group. The protocol:
Under isoflurane anesthesia, 10 to 14 weeks-old male Wistar rats were administered with 12.5 μg/5 μL of LPS (SIGMA, L2880) in the cisterna magna, followed by an oral administration of the test compound 2 hours later. After an additional hour, 50 μg/5 μL of BzATP(2′(3′)-O-(4-benzoylbenzoyl)adenosine 5′-triphosphate triethylammonium salt, SIGMA, B6396) was administered into the cisterna magna, and cerebrospinal fluid was collected after 30 minutes. The cerebrospinal fluid was subjected to Western blotting using an anti-IL-1β antibody (Millipore, AB1832P) to quantify IL-1β p17, and the percent inhibition relative to the solvent-treated group was calculated.
The percent inhibition of IL-1β p17 for Examples 1, 2(1), 3(1) and 124, which are compounds of formula (I), relative to the solvent-treated group is shown in the following table. In the table, Dose refers to the dosage of test compounds; Ex1, Ex2(1), Ex3(1), and Ex124 refer to Example 1, Example 2(1), Example 3(1); and Example 124; and “NT” denotes the unmeasured case.

T1 sequence (Q96P20 whole entry): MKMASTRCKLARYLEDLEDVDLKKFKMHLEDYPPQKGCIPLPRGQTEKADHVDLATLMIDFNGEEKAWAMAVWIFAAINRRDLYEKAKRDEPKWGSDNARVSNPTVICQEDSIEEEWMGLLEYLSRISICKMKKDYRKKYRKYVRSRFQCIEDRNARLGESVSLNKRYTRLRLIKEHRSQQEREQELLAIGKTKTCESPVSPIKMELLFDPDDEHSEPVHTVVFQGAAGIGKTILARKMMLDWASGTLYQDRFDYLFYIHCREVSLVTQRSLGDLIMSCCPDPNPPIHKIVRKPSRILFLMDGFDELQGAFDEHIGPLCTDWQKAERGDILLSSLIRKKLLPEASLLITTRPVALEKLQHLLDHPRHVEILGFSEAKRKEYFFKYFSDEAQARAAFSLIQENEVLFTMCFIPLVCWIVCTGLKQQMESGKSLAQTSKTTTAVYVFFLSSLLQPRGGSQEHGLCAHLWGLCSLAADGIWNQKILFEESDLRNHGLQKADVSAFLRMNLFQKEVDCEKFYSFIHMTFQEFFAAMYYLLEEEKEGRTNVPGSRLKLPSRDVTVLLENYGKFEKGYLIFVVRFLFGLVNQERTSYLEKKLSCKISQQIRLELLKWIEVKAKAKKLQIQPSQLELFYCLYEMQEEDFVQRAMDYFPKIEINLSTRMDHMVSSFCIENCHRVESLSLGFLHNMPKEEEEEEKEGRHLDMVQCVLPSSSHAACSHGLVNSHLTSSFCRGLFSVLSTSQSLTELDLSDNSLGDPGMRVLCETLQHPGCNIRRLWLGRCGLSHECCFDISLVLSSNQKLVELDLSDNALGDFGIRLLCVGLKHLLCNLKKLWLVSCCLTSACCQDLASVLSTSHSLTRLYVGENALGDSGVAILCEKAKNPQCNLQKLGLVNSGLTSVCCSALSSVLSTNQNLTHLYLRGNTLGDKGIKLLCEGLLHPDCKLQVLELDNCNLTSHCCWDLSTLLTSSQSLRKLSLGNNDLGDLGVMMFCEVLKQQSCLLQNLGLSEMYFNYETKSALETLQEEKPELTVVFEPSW
hERG channel, sequence (Q12809 whole entry): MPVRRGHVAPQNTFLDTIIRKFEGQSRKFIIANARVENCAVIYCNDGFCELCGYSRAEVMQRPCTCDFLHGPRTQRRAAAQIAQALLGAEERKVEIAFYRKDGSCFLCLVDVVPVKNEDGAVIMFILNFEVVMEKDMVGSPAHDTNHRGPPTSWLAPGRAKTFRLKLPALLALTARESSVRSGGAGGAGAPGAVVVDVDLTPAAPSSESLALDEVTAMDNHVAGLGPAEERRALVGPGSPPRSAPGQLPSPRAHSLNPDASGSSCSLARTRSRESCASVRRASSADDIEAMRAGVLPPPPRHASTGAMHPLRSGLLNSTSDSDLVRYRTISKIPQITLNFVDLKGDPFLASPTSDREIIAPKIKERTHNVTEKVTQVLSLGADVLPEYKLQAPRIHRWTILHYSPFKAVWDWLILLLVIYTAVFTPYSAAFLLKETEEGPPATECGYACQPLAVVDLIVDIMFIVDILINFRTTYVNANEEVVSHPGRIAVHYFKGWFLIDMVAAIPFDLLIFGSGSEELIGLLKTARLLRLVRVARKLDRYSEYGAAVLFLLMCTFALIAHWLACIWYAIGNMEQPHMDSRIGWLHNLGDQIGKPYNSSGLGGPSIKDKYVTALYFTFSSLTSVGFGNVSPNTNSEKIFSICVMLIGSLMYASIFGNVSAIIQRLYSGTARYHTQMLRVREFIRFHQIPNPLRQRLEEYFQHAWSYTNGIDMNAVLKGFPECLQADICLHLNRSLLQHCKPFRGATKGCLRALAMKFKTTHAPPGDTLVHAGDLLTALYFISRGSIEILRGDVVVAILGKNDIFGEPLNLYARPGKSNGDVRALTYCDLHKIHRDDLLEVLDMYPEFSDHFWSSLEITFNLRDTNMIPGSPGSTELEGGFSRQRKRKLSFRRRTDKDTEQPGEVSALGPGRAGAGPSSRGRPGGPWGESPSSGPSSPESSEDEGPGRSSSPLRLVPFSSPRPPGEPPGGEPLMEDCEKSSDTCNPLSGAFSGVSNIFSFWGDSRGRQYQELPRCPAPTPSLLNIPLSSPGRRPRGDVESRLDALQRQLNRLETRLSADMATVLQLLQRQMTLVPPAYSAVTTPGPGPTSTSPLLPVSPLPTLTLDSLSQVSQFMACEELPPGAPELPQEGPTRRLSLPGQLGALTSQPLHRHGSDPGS

Turning to `Oc1cc(C(F)(F)F)ccc1-c1nnc(N[C@@H]2CCCC[C@H]2O)c2c1CCOC2` [Example 2(1), 2-(4-{[(1R,2R)-2-hydroxycyclohexyl]amino}-7,8-dihydro-5H-pyrano[3,4-d]pyridazin-1-yl)-5-(trifluoromethyl)phenol], the pIC50 against hERG channel is ≤ 5.00. Moreover, in the data set on 3T3, the phototoxic effect result is recorded as “no phototoxic effect”. In addition, the pIC50 in data set [1] is ≤ 5.00. In addition, the pIC50 on NLRP3 inflammasome is 8.47. For the same compound, in the data set on IL-1β p17, the inhibition at 0.3 mg/kg is 81%, the inhibition at 1 mg/kg is 75% and the inhibition at 3 mg/kg stood at 88%.

For the compound `Oc1cc(C(F)(F)F)ccc1-c1nnc(N[C@@H]2CCCC[C@H]2O)c2c1CCCC2` [Example 1, 2-(4-{[(1R,2R)-2-hydroxycyclohexyl]amino}-5,6,7,8-tetrahydrophthalazin-1-yl)-5-(trifluoromethyl)phenol], the pIC50 at hERG channel was ≤ 5.00; in data set [1], ≤ 5.00; on NLRP3 inflammasome it was 8.00. In addition, in the data set on 3T3, the phototoxic effect result is given as “no phototoxic effect”. In the data set with IL-1β p17, the inhibition at 0.3 mg/kg was -12%. For the same compound, the inhibition at 1 mg/kg in the data set on IL-1β p17 stood at 74%. The inhibition at 3 mg/kg in the data set on IL-1β p17 is 84%.

As for `CN1CCC[C@@H](Nc2nnc(-c3ccc(OC(F)F)cc3O)c3c2COCC3)C1` [Example 124, 5-(difluoromethoxy)-2-(4-{[(3R)-1-methylpiperidin-3-yl]amino}-7,8-dihydro-5H-pyrano[3,4-d]pyridazin-1-yl)phenol], the pIC50 against hERG channel is ≤ 5.00; in data set [1] it was ≤ 5.00; on NLRP3 inflammasome, 9.21. Further, in the data set on 3T3, the phototoxic effect result is “no phototoxic effect”. Moreover, the inhibition at 0.1 mg/kg with IL-1β p17 (Dose 0.1 mg/kg) turned out to be 55%. Also, the inhibition at 0.3 mg/kg with IL-1β p17 came out at 49%. For the same compound, the inhibition at 1 mg/kg in the data set on IL-1β p17 is 96%.

For `Oc1cc(OC(F)(F)F)ccc1-c1nnc(N[C@@H]2CCCC[C@H]2O)c2c1CCOC2` [Example 3(1), 2-(4-{[(1R,2R)-2-hydroxycyclohexyl]amino}-7,8-dihydro-5H-pyrano[3,4-d]pyridazin-1-yl)-5-(trifluoromethoxy)phenol], the pIC50 at hERG channel was ≤ 5.00. In the data set with 3T3, the phototoxic effect entry is listed as “no phototoxic effect”. The pIC50 in data set [1] was ≤ 5.00. Further, the pIC50 at NLRP3 inflammasome was 8.66. Further, in the data set on IL-1β p17, the inhibition at 0.3 mg/kg is 75%, the inhibition at 1 mg/kg was found to be 82% and the inhibition at 3 mg/kg was determined as 72%.

With `CN1Cc2c(N[C@@H]3CCCC[C@H]3O)nnc(-c3ccc(C(F)(F)F)cc3O)c2C1` [Example 99, 2-(4-{[(1R,2R)-2-hydroxycyclohexyl]amino}-6-methyl-6,7-dihydro-5H-pyrrolo[3,4-d]pyridazin-1-yl)-5-(trifluoromethyl)phenol], the results for the pIC50 (in data set [1]; at NLRP3 inflammasome) were ≤ 5.00 and 7.80, respectively.
